These results are taken from patent US5721366A, “Platelet aggregation inhibitors” (G. D. Searle & Co, priority 1995, dated 1998).

Where a name gives a salt, the structure may show the parent alone.

Test [1] concerns Human platelet aggregation (platelet-rich plasma). In words: Inhibition of Human Platelet Aggregation (PRP), collagen-induced. The test is classed as cell-based. The following applies: Homo sapiens, Platelet, collagen-induced aggregation (4 μg/ml final), 37° C. As to the method: Inhibition of Human Platelet Aggregation (PRP)
Platelet rich plasma was prepared from citrated whole blood (3.8% Na citrate, 1:10 in 30 ml blood) withdrawn from the antecubital vein (n=1). PRP was prepared by centrifugation (Sorvall RC3C, DuPont, Wilmington, Del.) of the whole blood at 1000×g for 3 min, allowing the centrifuge to stop without braking. Platelet poor plasma (PPP) was prepared by centrifugation of PRP at 2000×g for 10 min. […] Aggregation was measured in a 4 channel aggregometer (model PAP-4C, Bio/Data Corp., Hatboro, Pa.). Aliquots of PPP were used to standardize the aggregometer for measurement of maximum light transmission. Platelet aggregation was measured as an increase in light transmission.
PRP (430 μl aliquot) was preincubated with 50 μl of various concentrations of compound (dissolved in 10% ETOH/water at a concentration of 10^-3 M. Compounds were diluted to desired concentration with 0.9% NaCl) for 2 min at 37° C., with stirring at 900 rpm, in the aggregometer. The stock collagen (Chronolog, Havertown, Pa., equine tendon) was diluted 1:10 with a 5% dextrose and water solution. The vehicle control response was obtained by adding 20 μl diluted collagen to the untreated aliquot of PRP+50 μl saline. Final collagen concentration was 4 μg/ml. Aggregation was recorded for 3 min following the addition of collagen. […] Percent inhibition was calculated by comparing treated and control samples. IC50 's were calculated graphically from dose-response curves. Average values and standard errors were calculated using the IC50 's of the individual experiments. Statistical analyses were done by an unequal variance, unpaired Student's t-test [Minitab Reference Manual, Minitab Inc., State College, Pa. (1988)]. Statistical significance was assumed when p<0.05 was found.
(§1) (NT in the following table indicates not tested.)

Test [2] concerns Dog platelet aggregation (platelet-rich plasma). In words: In-Vitro Platelet Aggregation in PRP (Dog), collagen-induced. The class given is cell-based. The following applies: for IC50: collagen-induced aggregation (33 μg/ml final), 37° C. As to the method: In-Vitro Platelet Aggregation in PRP--(Dog)
Healthy male or female dogs were fasted for 8 hours prior to drawing blood; then 60 ml whole blood was collected using a butterfly needle and 30 cc plastic syringe with 6 ml of 0.129M buffered sodium citrate (3.8%) (drawn from a minimum of 3 dogs and blood was pooled). The syringe was rotated carefully as blood was drawn to mix the citrate. Platelet-rich plasma (PRP) was prepared by centrifugation at 975×g for 3.17 minutes at room temperature, allowing the centrifuge to coast to a stop without braking. The PRP was removed from the blood with a plastic pipette and placed in a plastic capped 50 ml Corning conical sterile centrifuge tube which was held at room temperature. Platelet poor plasma (PPP) was prepared by centrifuging the remaining blood at 2000×g for 15 minutes at room temperature allowing the centrifuge to coast to a stop without braking. The platelet count in the PRP was routinely 2-4×10^8 platelets per ml. 400 μl of the PRP preparation and 50 μl of the compound to be tested or saline were preincubated for 2 minutes at 37° C. in a BioData aggregometer (BioData, Horsham, Pa.). 50 μl of collagen (diluted 1:3 with 5% dextrose and water solution, 33 μg/ml final concentration, equine tendon, Chronolog, Havertown, Pa.) was added to the cuvettes and the aggregation was monitored for 3 minutes. All compounds are tested in duplicate.
Results are calculated as follows:
Percent of control=[(maximal OD minus initial OD of compound) divided by (maximal OD minus initial OD of control saline)]×100. The % inhibition=100-(percent of control).
as §1

Where [3] appears, read: Canis lupus familiaris, Platelet.

By IC50 is commonly meant the concentration that inhibits the measured activity by half. High values mean a need for much substance, low ones inhibition by little substance. Take `C=C[C@H](CC(=O)O)NC(=O)NC1CCN(c2ccc(C(=N)N)cc2)C1=O` (stereo partly drawn) [Example 18, 3(S)-[[[[1-[4-(aminoiminomethyl]phenyl]-2-oxo-3-pyrrolidinyl]amino]carbonyl]amino]-4-pentenoic acid]: the values for the concentration for half-maximal inhibition (IC50) in test [1] and in test [2] (setting [3]) were 0.1 µM and 0.17 µM, respectively.
On to `N=C(N)c1ccc(N2CCCC(CC(=O)NCCC(=O)O)C2=O)cc1` (single isomer, unassigned; isomer b) [Example 34B, 3-[[[1-[4-(aminoiminomethyl)phenyl]-2-oxo-3-piperidinyl]acetyl]amino]propanoic acid, enantiomerically enriched isomer B], for which inhibition in test [2] (setting [3]) was half-maximal at 0.24 µM (IC50).
Still for that read-out and setting: for `C#CC(CC(=O)O)NC(=O)CC1CCCN(c2ccc(C(=N)N)cc2)C1=O` (stereo not shown) [Example 24, 3-[[[1-[4-(aminoiminomethyl)phenyl]-2-oxo-3-piperidinyl]acetyl]amino]-4-pentynoic acid.] the value was 0.19 µM; for `N=C(N)c1ccc(N2CCCC(CC(=O)NC(CC(=O)O)c3ccoc3)C2=O)cc1` (single isomer, unassigned; isomer b) [Example 34E], 0.07 µM.
Turning to “3[S]-[[[[1-[4-(aminoiminomethyl)phenyl]-2-oxo-3-pyrrolidinyl]amino]carbonyl]amino]benzenepropanoic acid trifluoroacetate. Enantiomerically Enriched Isomer B [Example 47]”, in test [2], half-maximal inhibition (IC50) required 0.062 µM.
The molecule `N=C(N)c1ccc(N2CCC(CC(=O)NC(CC(=O)O)c3ccoc3)C2=O)cc1` (single isomer, unassigned) [Example 51] returned a half-inhibitory concentration (IC50) in test [2] (setting [3]) of 0.05 µM.
Consider `C[C@@H](CCCC1CCN(c2ccc(C(=N)N)cc2)C1=O)CC(=O)O` (stereo partly shown) [Example 19, 1-[4-(aminoiminomethyl)phenyl]-βS-methyl-2-oxo-3-pyrrolidinehexanoic acid, monohydrochloride.], for which the IC50 in test [1] was determined as 0.09 µM; in test [2] (setting [3]), 0.15 µM.
What is called inhibition is the share of the control response that was lost under treatment. A higher inhibition goes with a strong effect. The molecule `C=C[C@H](CC(=O)O)NC(=O)CC1CCCN(c2ccc(C(=N)N)cc2)C1=O` (single isomer, unassigned; isomer a) [Example 34J] came in with an inhibition at 1 µM in test [2] (Canis lupus familiaris, @ 1 μM, collagen-induced aggregation) of 13%.
As to `C=C[C@H](CC(=O)O)NC(=O)CC1CCN(c2ccc(C(=N)N)cc2)C1=O` (stereo partly drawn) [Example 2, 3(S)-[[[1-[4-(aminoiminomethyl)phenyl]-2-oxo-3-pyrrolidinyl]acetyl]amino]-4-pentenoic acid, monohydrochloride], the IC50 in test [2] (setting [3]) was found to be 0.072 µM.
As to `CC(CC(=O)O)NC(=O)CC1CCCN(c2ccc(C(=N)N)cc2)C1=O` (stereo not shown) [Example 30, 3-[[[1-[4-(aminoiminomethyl)phenyl]-2-oxo-3-piperidinyl]acetyl]amino]-butanoic acid], the IC50 in test [1] was 0.28 µM; in test [2] (setting [3]), 0.38 µM.
As for `C=C[C@H](CC(=O)O)NC(=O)CC1CCCN(c2ccc(C(=N)N)cc2)C1=O` (single isomer, unassigned; isomer b) [Example 34L], the 50% inhibitory concentration (IC50) in test [2] (setting [3]) turned out to be 0.059 µM.
Take `N=C(N)c1ccc(N2CCCC(CC(=O)NC(CC(=O)O)c3ccco3)C2=O)cc1` (mixture of isomers) [Example 34G, 3-[[[1-[4-(aminoiminomethyl)phenyl]2-oxo-3-piperidinyl]acetyl]amino]-3-(2-furanyl]propanoic acid, diastereomers]: in test [2] (setting [3]), half-maximal inhibition (IC50) required 0.19 µM.
For the molecule `N=C(N)c1ccc(N2CCC(CC(=O)NCCC(=O)O)C2=O)cc1` (single isomer, unassigned; isomer b) [Example 36, 3-[[[1-[4-(aminoiminomethyl)phenyl]-2-oxo-3-pyrrolidinyl]acetyl]amino]propionic acid, trifluoroacetate, enantiomerically enriched isomer B.], the results for the IC50 in test [1] and in test [2] (setting [3]) were 0.11 µM and 0.091 µM, respectively.
The molecule `N=C(N)c1ccc(N2CCC(NC(=O)NCCC(=O)O)C2=O)cc1` (single isomer, unassigned; isomer b) [Example 43, 3-[[[[1-[4-(aminoiminomethyl)phenyl]-2-oxo-3-pyrrolidinyl]amino]carbonyl]amino]propanoic acid trifluoroacetate. Enantiomerically Enriched Isomer B.] displayed a half-maximal inhibitory concentration (IC50) in test [2] (setting [3]) of 0.09 µM.
Turning to `N=C(N)c1ccc(N2CCC(NC(=O)NCCC(=O)O)C2=O)cc1` (stereo not shown) [Example 38, 3-[[[[1-[4-(aminoiminomethyl)phenyl]-2-oxo-3-pyrrolidinyl]amino]carbonyl]amino]propionic acid, trifluoroacetate.], in test [2] (setting [3]), inhibition was half-maximal at 0.125 µM (IC50).
The same measure, in the same setting: for `COc1ccc(C(CC(=O)O)NC(=O)CC2CCCN(c3ccc(C(=N)N)cc3)C2=O)cc1` (stereo not shown) [Example 34I, 3-[[[1-[4-(aminoiminomethyl)phenyl]-2-oxo-3-piperidinyl]acetyl]amino]-3-(4-methoxyphenyl)propanoic acid] the value was 0.18 µM; for `N=C(N)c1ccc(N2CCCC(CC(=O)NC(CC(=O)O)c3ccsc3)C2=O)cc1` (single isomer, unassigned; isomer b) [Example 34C, 3-[[[1-[4-(aminoiminomethyl)phenyl]-2-oxo-3-piperidinyl]acetyl]amino]-3-(3-thienyl)propanoic acid, enantiomerically enriched isomer B], 0.16 µM; for `CC(C)(C)C#CC(CC(=O)O)NC(=O)CC1CCCN(c2ccc(C(=N)N)cc2)C1=O` (stereo not shown) [Example 26, 3-[[[1-[4-(aminoiminomethyl)phenyl]-2-oxo-3-piperidinyl]acetyl]amino]-6,6-dimethyl-4-heptynoic acid], 0.59 µM.
Same read-out and setting: then `C[C@H](CC(=O)O)NC(=O)NC1CCN(c2ccc(C(=N)N)cc2)C1=O` (single isomer, unassigned; isomer b) [Example 45], with 0.039 µM.
For the molecule `N=C(N)c1ccc(N2CCC(CC(=O)NCCC(=O)O)C2=O)cc1` (stereo not shown) [Example 8, 3-[[[1-[4-(aminoiminomethyl)phenyl]-2-oxo-3-pyrrolidinyl]acetyl]amino]propionic acid], the IC50 in test [1] and in test [2] (setting [3]) was 0.18 µM in each case.
Regarding `CC(CC(=O)O)NC(=O)CC1CCN(c2ccc(C(=N)N)cc2)C1=O` (stereo not shown) [Example 10, 3-[[[-[4-(aminoiminomethyl)phenyl]-2-oxo-3-pyrrolidinyl]acetyl]amino]butanoic acid], the figures for the 50% inhibitory concentration (IC50) in test [1] and in test [2] (setting [3]) were 0.26 µM and 0.17 µM, respectively.
For `N=C(N)c1ccc(N2CCCC(CC(=O)NC(C#Cc3ccccc3)CC(=O)O)C2=O)cc1` (stereo not shown) [Example 28, 3-[[[1-[4-(aminoiminomethyl)phenyl]-2-oxo-3-piperidinyl]acetyl]amino]-5-phenyl-4-pentynoic acid.], in that order: 0.19 µM and 0.17 µM.
In test [2] (setting [3]), `N=C(N)c1ccc(N2CCC(NC(=O)NC[C@H](NC(=O)OCc3ccccc3)C(=O)O)C2=O)cc1` (single isomer, unassigned; isomer b) [Example 49] showed an IC50 of 0.054 µM.
On the same count and under the same terms, then `C#C[C@H](CC(=O)O)NC(=O)CC1CCCN(c2ccc(C(=N)N)cc2)C1=O` (single isomer, unassigned; isomer b) [Example 34N], with 0.059 µM; and `C[Si](C)(C)C#C[C@H](CC(=O)O)NC(=O)CC1CCCN(c2ccc(C(=N)N)cc2)C1=O` (stereo partly drawn) [Example 22, 3S-[[[1-[4-(aminoiminomethyl)phenyl]-2-oxo-3-piperidinyl]acetyl]amino]-5-(trimethylsilyl)-4-pentynoic acid], with 0.18 µM; and `C#C[C@H](CC(=O)O)NC(=O)CC1CCN(c2ccc(C(=N)N)cc2)C1=O` (stereo partly drawn) [Example 14, 3(S) -[[[1-[4-(aminoiminomethyl)phenyl]-2-oxo-3-pyrrolidinyl]acetyl]amino]-4-pentynoic acid], with 0.12 µM.
In test [2] (setting [3]), `C=C[C@H](CC(=O)O)NC(=O)CC1CCCN(c2ccc(C(=N)N)cc2)C1=O` (stereo partly drawn) [Example 34, 3(S)-[[[1-[4-(aminoiminomethyl)phenyl]-2-oxo-3-piperidinyl]acetyl]amino]-4-pentenoic acid.] registered an IC50 of 0.12 µM.
